Data on 32 compounds can be found in US11020360B2, “Methods, compounds, compositions and vehicles for delivering 3-amino-1-propanesulfonic acid” (Bellus Health, Inc., priority 2006, dated 2021).

Structures are written as SMILES. Structures can show the parent of a compound that is named as a salt.

Data set [1] is described as follows: Mouse whole blood stability. Format: in vitro ADME. The note with it: 37° C. As to the method: (§1) Test compounds were incubated for a total of 240 minutes at 37° C. in whole mouse and whole human blood. The compounds were added at time-point 0 and sample aliquots were withdrawn at each time point (usually 0, 60 and 240 minutes). The samples were extracted using protein precipitation. Analysis of extracted samples was achieved using HPLC with MS detection. Several types of HPLC columns and mobile phase were used depending of the polarity of the compound. The compound stability was determined by the % of compound remaining at 240 minutes (peak response of compound at 240 minutes/peak response at 0 minutes×100).

Data set [2] is described as follows: Human whole blood stability. In kind it is in vitro ADME. Particulars: 37° C. How it is done: as §1

`N[C@@H](Cc1ccccc1)C(=O)NCCCS(=O)(=O)O` [Compound A1]: the “Blood stability (% of compound remaining after 240 min.) Mouse Blood” value in data set [1] is given as “+ (+: <30%)”.
As for `O=C(NCCCS(=O)(=O)O)[C@@H]1CCCN1` [Compound A3], the “Blood stability (% of compound remaining after 240 min.) Mouse Blood” value in data set [1] is on record as “++ (++: 30-75%)”.
In the case of `CC(C)C[C@H](N)C(=O)NCCCS(=O)(=O)O` [Compound A5], the “Blood stability (% of compound remaining after 240 min.) Human Blood” value in data set [2] is reported as “+ (+: <30%)”. For the same compound, in data set [1], the “Blood stability (% of compound remaining after 240 min.) Mouse Blood” value is “+ (+: <30%)”.
In the case of `CSCC[C@H](N)C(=O)NCCCS(=O)(=O)O` [Compound A6], in data set [2], the “Blood stability (% of compound remaining after 240 min.) Human Blood” value is on record as “++ (++: 30-75%)”. The “Blood stability (% of compound remaining after 240 min.) Mouse Blood” value in data set [1] is recorded as “+ (+: <30%)”.
With `C[C@H](N)C(=O)NCCCS(=O)(=O)O` [Compound A8], in data set [2], the “Blood stability (% of compound remaining after 240 min.) Human Blood” value is “+ (+: <30%)”. Moreover, in data set [1], the “Blood stability (% of compound remaining after 240 min.) Mouse Blood” value is “++ (++: 30-75%)”.
For `C[C@@H](N)C(=O)NCCCS(=O)(=O)O` [Compound A9], in that order: “+++ (+++: >75%)” and “+++ (+++: >75%)”.
`NCC(=O)NCCCS(=O)(=O)O` [Compound A10]: the “Blood stability (% of compound remaining after 240 min.) Human Blood” value in data set [2] was “++ (++: 30-75%)”. The “Blood stability (% of compound remaining after 240 min.) Mouse Blood” value in data set [1] is on record as “++ (++: 30-75%)”.
With `CCC(C)[C@H](N)C(=O)NCCCS(=O)(=O)O` (some centres unmarked) [Compound A11], the “Blood stability (% of compound remaining after 240 min.) Human Blood” value in data set [2] was “+++ (+++: >75%)”. The “Blood stability (% of compound remaining after 240 min.) Mouse Blood” value in data set [1] is given as “+++ (+++: >75%)”.
On to `CSCC[C@@H](N)C(=O)NCCCS(=O)(=O)O` [Compound A12], for which the “Blood stability (% of compound remaining after 240 min.) Human Blood” value in data set [2] was “+++ (+++: >75%)”. In data set [1], the “Blood stability (% of compound remaining after 240 min.) Mouse Blood” value is “+++ (+++: >75%)”.
On to `N[C@@H](Cc1c[nH]cn1)C(=O)NCCCS(=O)(=O)O` [Compound A13], for which the “Blood stability (% of compound remaining after 240 min.) Human Blood” value in data set [2] is “+++ (+++: >75%)”. Moreover, in data set [1], the “Blood stability (% of compound remaining after 240 min.) Mouse Blood” value was “+++ (+++: >75%)”.
Take `CC(C)(N)C(=O)NCCCS(=O)(=O)O` [Compound A14]: the “Blood stability (% of compound remaining after 240 min.) Human Blood” value in data set [2] is reported as “+++ (+++: >75%)”. In data set [1], the “Blood stability (% of compound remaining after 240 min.) Mouse Blood” value is given as “+++ (+++: >75%)”.
In the case of `N[C@H](C(=O)NCCCS(=O)(=O)O)c1ccccc1` [Compound A15], the “Blood stability (% of compound remaining after 240 min.) Human Blood” value in data set [2] is “++ (++: 30-75%)”. In addition, the “Blood stability (% of compound remaining after 240 min.) Mouse Blood” value in data set [1] is recorded as “+ (+: <30%)”.
Consider `N[C@@H](Cc1c[nH]c2ccccc12)C(=O)NCCCS(=O)(=O)O` [Compound A16], for which, in data set [2], the “Blood stability (% of compound remaining after 240 min.) Human Blood” value is “+++ (+++: >75%)”. Moreover, the “Blood stability (% of compound remaining after 240 min.) Mouse Blood” value in data set [1] is “++ (++: 30-75%)”.
As for `N[C@@H](CCC(=O)OCc1ccccc1)C(=O)NCCCS(=O)(=O)O` [Compound A19], the “Blood stability (% of compound remaining after 240 min.) Human Blood” value in data set [2] was “+ (+: <30%)”. Moreover, the “Blood stability (% of compound remaining after 240 min.) Mouse Blood” value in data set [1] is listed as “+ (+: <30%)”.
As for `CC(C)(CC(=O)O)CC(=O)NCCCS(=O)(=O)O` [Compound B3, 3,3-dimethyl-5-oxo-5-[(3-sulfopropyl)amino]pentanoic Acid Sodium Salt], in data set [2], the “Blood stability (% of compound remaining after 240 min.) Human Blood” value was “+++ (+++: >75%)”. Besides, the “Blood stability (% of compound remaining after 240 min.) Mouse Blood” value in data set [1] is “++ (++: 30-75%)”.
Taken in the same sequence, the figures for `CC(C)(CCC(=O)NCCCS(=O)(=O)O)C(=O)O` [Compound B4] were “+++ (+++: >75%)” and “+++ (+++: >75%)”.
Regarding `O=C(O)CCC(=O)NCCCS(=O)(=O)O` [Compound B5], the “Blood stability (% of compound remaining after 240 min.) Human Blood” value in data set [2] was “+++ (+++: >75%)”. Moreover, the “Blood stability (% of compound remaining after 240 min.) Mouse Blood” value in data set [1] is reported as “+++ (+++: >75%)”.
Consider `CC(=O)Oc1ccc(COC(=O)NCCCS(=O)(=O)O)cc1` [Compound C1, 3-(p-acetyloxybenzyloxycarbonyl)amino-1-propanesulfonic Acid Sodium Salt], for which the “Blood stability (% of compound remaining after 240 min.) Human Blood” value in data set [2] is on record as “+ (+: <30%)”. For the same compound, in data set [1], the “Blood stability (% of compound remaining after 240 min.) Mouse Blood” value is given as “+ (+: <30%)”.
`CC(OC(=O)CCC(=O)O)OC(=O)NCCCS(=O)(=O)O` (centres unmarked) [Compound C4]: the “Blood stability (% of compound remaining after 240 min.) Human Blood” value in data set [2] is reported as “+++ (+++: >75%)”. In data set [1], the “Blood stability (% of compound remaining after 240 min.) Mouse Blood” value was “++ (++: 30-75%)”.
Consider `CC(OC(=O)CCC(=O)OCc1ccccc1)OC(=O)NCCCS(=O)(=O)O` (centres unmarked) [Compound C5], for which, in data set [2], the “Blood stability (% of compound remaining after 240 min.) Human Blood” value is on record as “+ (+: <30%)”. Moreover, the “Blood stability (% of compound remaining after 240 min.) Mouse Blood” value in data set [1] is “+ (+: <30%)”.
With `CC(OC(=O)CC(C)(C)CC(=O)OCc1ccccc1)OC(=O)NCCCS(=O)(=O)O` (centres unmarked) [Compound C7], the “Blood stability (% of compound remaining after 240 min.) Human Blood” value in data set [2] is given as “+++ (+++: >75%)”. In addition, in data set [1], the “Blood stability (% of compound remaining after 240 min.) Mouse Blood” value is reported as “+ (+: <30%)”.
`CC(OC(=O)CC(C)(C)CC(=O)O)OC(=O)NCCCS(=O)(=O)O` (centres unmarked) [Compound C8]: the “Blood stability (% of compound remaining after 240 min.) Human Blood” value in data set [2] is on record as “+++ (+++: >75%)”. The “Blood stability (% of compound remaining after 240 min.) Mouse Blood” value in data set [1] is “+++ (+++: >75%)”.
Take `CC(OC(=O)CCCCC(=O)O)OC(=O)NCCCS(=O)(=O)O` (centres unmarked) [Compound C9]: the “Blood stability (% of compound remaining after 240 min.) Human Blood” value in data set [2] is “++ (++: 30-75%)”. The “Blood stability (% of compound remaining after 240 min.) Mouse Blood” value in data set [1] is listed as “++ (++: 30-75%)”.
Take `CC(OC(=O)CCCCC(=O)OCc1ccccc1)OC(=O)NCCCS(=O)(=O)O` (centres unmarked) [Compound C10]: in data set [2], the “Blood stability (% of compound remaining after 240 min.) Human Blood” value is “+ (+: <30%)”. Further, the “Blood stability (% of compound remaining after 240 min.) Mouse Blood” value in data set [1] is “+ (+: <30%)”.
As to `CC(OC(=O)CCCC(=O)O)OC(=O)NCCCS(=O)(=O)O` (centres unmarked) [Compound C11], in data set [2], the “Blood stability (% of compound remaining after 240 min.) Human Blood” value is “+++ (+++: >75%)”. For the same compound, the “Blood stability (% of compound remaining after 240 min.) Mouse Blood” value in data set [1] is listed as “+++ (+++: >75%)”.
Turning to `CC(OC(=O)CCCC(=O)OCc1ccccc1)OC(=O)NCCCS(=O)(=O)O` (centres unmarked) [Compound C12], the “Blood stability (% of compound remaining after 240 min.) Human Blood” value in data set [2] is recorded as “++ (++: 30-75%)”. Moreover, the “Blood stability (% of compound remaining after 240 min.) Mouse Blood” value in data set [1] is reported as “+ (+: <30%)”.
For the compound `CC(OC(=O)NCCCS(=O)(=O)O)OC(=O)C(C)(C)c1cccs1` (centres unmarked) [Compound C13], the “Blood stability (% of compound remaining after 240 min.) Human Blood” value in data set [2] is recorded as “+ (+: <30%)”. The “Blood stability (% of compound remaining after 240 min.) Mouse Blood” value in data set [1] is “+ (+: <30%)”.
As for `CC(OC(=O)NCCCS(=O)(=O)O)OC(=O)C(C)(C)c1ccccc1` (centres unmarked) [Compound C14], the “Blood stability (% of compound remaining after 240 min.) Human Blood” value in data set [2] is “+++ (+++: >75%)”. Also, the “Blood stability (% of compound remaining after 240 min.) Mouse Blood” value in data set [1] is listed as “++ (++: 30-75%)”.
As to `CC(OC(=O)NCCCS(=O)(=O)O)OC(=O)C(C)(C)C` (centres unmarked) [Compound C15], the “Blood stability (% of compound remaining after 240 min.) Human Blood” value in data set [2] was “++ (++: 30-75%)”. In addition, the “Blood stability (% of compound remaining after 240 min.) Mouse Blood” value in data set [1] is on record as “+ (+: <30%)”.
In the case of `CC(OC(=O)NCCCS(=O)(=O)O)OC(=O)C1CCCCC1` (centres unmarked) [Compound C17], the “Blood stability (% of compound remaining after 240 min.) Mouse Blood” value in data set [1] was “+ (+: <30%)”.
Still for that read-out and setting: the entry for `CC(OC(=O)NCCCS(=O)(=O)O)OC(=O)C(C)C` (centres unmarked) [Compound C18] is “+ (+: <30%)”; for `CC(=O)OC(C)OC(=O)NCCCS(=O)(=O)O` (centres unmarked) [Compound C19, 4-aza-7-methyl-6,8,-dioxa-5,9,-dioxo-1-decanesulfonic acid Sodium Salt] it is “+ (+: <30%)”.
